# Experimental data published in PubChem BioAssay (NCI).
#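 96-well plates; 48 h exposure; 5 concentrations. Endpoints by linear interpolation between flanking doses. Not reached: highest tested concentration assigned. GI50: concentration for 50% inhibition of growth. TGI: total growth inhibition.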
# Columns and labels:
# Experiment in all cases: NCI tumour cell line growth inhibition, 48 h
# PC-3 prostate = tested on: PC-3 prostate
# KM12 colon = tested on: KM12 colon
# HOP-92 NSCLC = tested on: HOP-92 NSCLC
# HS 578T breast = tested on: HS 578T breast
# SF-268 CNS = tested on: SF-268 CNS
# RPMI-8226 leukemia = tested on: RPMI-8226 leukemia
# OVCAR-3 ovarian = tested on: OVCAR-3 ovarian
# SK-MEL-28 melanoma = tested on: SK-MEL-28 melanoma
# M14 melanoma = tested on: M14 melanoma
# MDA-MB-435 = tested on: MDA-MB-435
# DU-145 prostate = tested on: DU-145 prostate
# U251 CNS = tested on: U251 CNS
# A549 NSCLC = tested on: A549 NSCLC
# NCI/ADR-RES ovarian = tested on: NCI/ADR-RES ovarian
# BT-549 breast = tested on: BT-549 breast
# LOX IMVI melanoma = tested on: LOX IMVI melanoma
# HT29 colon = tested on: HT29 colon
# SN12C renal = tested on: SN12C renal
# MCF7 breast = tested on: MCF7 breast
# SK-MEL-5 melanoma = tested on: SK-MEL-5 melanoma
# OVCAR-5 ovarian = tested on: OVCAR-5 ovarian
# HL-60(TB) leukemia = tested on: HL-60(TB) leukemia
# MALME-3M melanoma = tested on: MALME-3M melanoma
# IGROV1 ovarian = tested on: IGROV1 ovarian
# SNB-19 CNS = tested on: SNB-19 CNS
# K-562 leukemia = tested on: K-562 leukemia
# SF-539 CNS = tested on: SF-539 CNS
# UACC-257 melanoma = tested on: UACC-257 melanoma
# NCI-H460 lung = tested on: NCI-H460 lung
# EKVX NSCLC = tested on: EKVX NSCLC
# RXF 393 renal = tested on: RXF 393 renal
# NCI-H522 lung = tested on: NCI-H522 lung
# CAKI-1 renal = tested on: CAKI-1 renal
# 786-0 renal = tested on: 786-0 renal
# COLO 205 colon = tested on: COLO 205 colon
# UACC-62 melanoma = tested on: UACC-62 melanoma
# UO-31 renal = tested on: UO-31 renal
# TK-10 renal = tested on: TK-10 renal
# SK-MEL-2 melanoma = tested on: SK-MEL-2 melanoma
# SW-620 colon = tested on: SW-620 colon
# T-47D breast = tested on: T-47D breast
# CCRF-CEM leukemia = tested on: CCRF-CEM leukemia
# SK-OV-3 ovarian = tested on: SK-OV-3 ovarian
# OVCAR-8 ovarian = tested on: OVCAR-8 ovarian
# HCT-15 colon = tested on: HCT-15 colon
# MDA-MB-231 breast = tested on: MDA-MB-231 breast
# HCT-116 colon = tested on: HCT-116 colon
# A498 renal = tested on: A498 renal
# MOLT-4 leukemia = tested on: MOLT-4 leukemia
# SNB-75 CNS = tested on: SNB-75 CNS
# NCI-H226 lung = tested on: NCI-H226 lung
# SF-295 CNS = tested on: SF-295 CNS
# HOP-62 NSCLC = tested on: HOP-62 NSCLC
# HCC-2998 colon = tested on: HCC-2998 colon
# ACHN renal = tested on: ACHN renal
# NCI-H23 lung = tested on: NCI-H23 lung
# OVCAR-4 ovarian = tested on: OVCAR-4 ovarian
# SR leukemia = tested on: SR leukemia
structure (smiles),measurement,setting,value
OCCN1CCN(CCCN2c3ccccc3Sc3ccc(Cl)cc32)CC1,GI50,PC-3 prostate,2640 nM
same,TGI,PC-3 prostate,12 µM
same,GI50,KM12 colon,1910 nM
same,TGI,KM12 colon,3.69 µM
same,GI50,HOP-92 NSCLC,1370 nM
same,TGI,HOP-92 NSCLC,6.72 µM
same,GI50,HS 578T breast,1980 nM
same,TGI,HS 578T breast,5.71 µM
same,GI50,SF-268 CNS,2790 nM
same,TGI,SF-268 CNS,10.7 µM
same,GI50,RPMI-8226 leukemia,2290 nM
same,TGI,RPMI-8226 leukemia,6.7 µM
same,GI50,OVCAR-3 ovarian,2590 nM
same,TGI,OVCAR-3 ovarian,6.73 µM
same,GI50,SK-MEL-28 melanoma,1840 nM
same,TGI,SK-MEL-28 melanoma,3.31 µM
same,GI50,M14 melanoma,1880 nM
same,TGI,M14 melanoma,3.6 µM
same,GI50,MDA-MB-435,1720 nM
same,TGI,MDA-MB-435,3.33 µM
same,GI50,DU-145 prostate,5.04 µM
same,TGI,DU-145 prostate,16.2 µM
same,GI50,U251 CNS,1900 nM
same,TGI,U251 CNS,4.33 µM
same,GI50,A549 NSCLC,3.68 µM
same,TGI,A549 NSCLC,15.2 µM
same,GI50,NCI/ADR-RES ovarian,2720 nM
same,TGI,NCI/ADR-RES ovarian,9.91 µM
same,GI50,BT-549 breast,4.49 µM
same,TGI,BT-549 breast,16.6 µM
same,GI50,LOX IMVI melanoma,1590 nM
same,TGI,LOX IMVI melanoma,3.09 µM
same,GI50,HT29 colon,1730 nM
same,TGI,HT29 colon,3.42 µM
same,GI50,SN12C renal,3.42 µM
same,TGI,SN12C renal,14.2 µM
same,GI50,MCF7 breast,2020 nM
same,TGI,MCF7 breast,3.96 µM
same,GI50,SK-MEL-5 melanoma,1650 nM
same,TGI,SK-MEL-5 melanoma,3 µM
same,GI50,OVCAR-5 ovarian,3.12 µM
same,TGI,OVCAR-5 ovarian,12.1 µM
same,GI50,HL-60(TB) leukemia,2060 nM
same,TGI,HL-60(TB) leukemia,4.16 µM
same,GI50,MALME-3M melanoma,1790 nM
same,TGI,MALME-3M melanoma,3.59 µM
same,GI50,IGROV1 ovarian,3.12 µM
same,TGI,IGROV1 ovarian,12.2 µM
same,GI50,SNB-19 CNS,2300 nM
same,TGI,SNB-19 CNS,5.7 µM
same,GI50,K-562 leukemia,2100 nM
same,TGI,K-562 leukemia,4.45 µM
same,GI50,SF-539 CNS,1820 nM
same,TGI,SF-539 CNS,3.94 µM
same,GI50,UACC-257 melanoma,1660 nM
same,TGI,UACC-257 melanoma,3.36 µM
same,GI50,NCI-H460 lung,1980 nM
same,TGI,NCI-H460 lung,4.22 µM
same,GI50,EKVX NSCLC,3.43 µM
same,TGI,EKVX NSCLC,17.7 µM
same,GI50,RXF 393 renal,1960 nM
same,TGI,RXF 393 renal,7.68 µM
same,GI50,NCI-H522 lung,1500 nM
same,TGI,NCI-H522 lung,3.13 µM
same,GI50,CAKI-1 renal,1710 nM
same,TGI,CAKI-1 renal,4.52 µM
same,GI50,786-0 renal,1870 nM
same,TGI,786-0 renal,3.98 µM
same,GI50,COLO 205 colon,1610 nM
same,TGI,COLO 205 colon,3 µM
same,GI50,UACC-62 melanoma,1760 nM
same,TGI,UACC-62 melanoma,3.29 µM
same,GI50,UO-31 renal,4.38 µM
same,TGI,UO-31 renal,18.3 µM
same,GI50,TK-10 renal,1650 nM
same,TGI,TK-10 renal,3.08 µM
same,GI50,SK-MEL-2 melanoma,2030 nM
same,TGI,SK-MEL-2 melanoma,4.04 µM
same,GI50,SW-620 colon,1770 nM
same,TGI,SW-620 colon,3.52 µM
same,GI50,T-47D breast,1910 nM
same,TGI,T-47D breast,5.56 µM
same,GI50,CCRF-CEM leukemia,2200 nM
same,TGI,CCRF-CEM leukemia,6.24 µM
same,GI50,SK-OV-3 ovarian,3.04 µM
same,TGI,SK-OV-3 ovarian,10.2 µM
same,GI50,OVCAR-8 ovarian,2020 nM
same,TGI,OVCAR-8 ovarian,4.7 µM
same,GI50,HCT-15 colon,2390 nM
same,TGI,HCT-15 colon,6.13 µM
same,GI50,MDA-MB-231 breast,1990 nM
same,TGI,MDA-MB-231 breast,4.78 µM
same,GI50,HCT-116 colon,1760 nM
same,TGI,HCT-116 colon,3.55 µM
same,GI50,A498 renal,1560 nM
same,TGI,A498 renal,5.87 µM
same,GI50,MOLT-4 leukemia,2400 nM
same,TGI,MOLT-4 leukemia,5.79 µM
same,GI50,SNB-75 CNS,3.97 µM
same,TGI,SNB-75 CNS,15.6 µM
same,GI50,NCI-H226 lung,5.26 µM
same,TGI,NCI-H226 lung,19.2 µM
same,GI50,SF-295 CNS,1750 nM
same,TGI,SF-295 CNS,3.65 µM
same,GI50,HOP-62 NSCLC,3.02 µM
same,TGI,HOP-62 NSCLC,12.7 µM
same,GI50,HCC-2998 colon,1500 nM
same,TGI,HCC-2998 colon,2980 nM
same,GI50,ACHN renal,3.8 µM
same,TGI,ACHN renal,13.6 µM
same,GI50,NCI-H23 lung,3.83 µM
same,TGI,NCI-H23 lung,18 µM
same,GI50,OVCAR-4 ovarian,4.49 µM
same,TGI,OVCAR-4 ovarian,17.4 µM
O=c1[nH]c2ccccc2c(=O)n1/N=C/c1ccc(O)cc1,TGI,PC-3 prostate,> 100 µM
same,TGI,KM12 colon,> 100 µM
same,TGI,HOP-92 NSCLC,90.4 µM
same,TGI,HS 578T breast,74.6 µM
same,TGI,SF-268 CNS,> 100 µM
same,TGI,RPMI-8226 leukemia,> 100 µM
same,TGI,OVCAR-3 ovarian,> 100 µM
same,TGI,SK-MEL-28 melanoma,> 100 µM
same,TGI,M14 melanoma,> 100 µM
same,TGI,MDA-MB-435,> 100 µM
same,TGI,DU-145 prostate,> 100 µM
same,TGI,U251 CNS,> 100 µM
same,TGI,A549 NSCLC,> 100 µM
same,TGI,NCI/ADR-RES ovarian,> 100 µM
same,TGI,BT-549 breast,> 100 µM
same,TGI,LOX IMVI melanoma,> 100 µM
same,TGI,HT29 colon,> 100 µM
same,TGI,SN12C renal,> 100 µM
same,TGI,MCF7 breast,> 100 µM
same,TGI,SK-MEL-5 melanoma,> 100 µM
same,TGI,OVCAR-5 ovarian,> 100 µM
same,TGI,HL-60(TB) leukemia,> 100 µM
same,TGI,SR leukemia,> 100 µM
same,TGI,IGROV1 ovarian,> 100 µM
same,TGI,SNB-19 CNS,> 100 µM
same,TGI,K-562 leukemia,> 100 µM
same,TGI,SF-539 CNS,> 100 µM
same,TGI,UACC-257 melanoma,> 100 µM
same,TGI,NCI-H460 lung,> 100 µM
same,TGI,EKVX NSCLC,> 100 µM
same,TGI,CAKI-1 renal,> 100 µM
same,TGI,786-0 renal,> 100 µM
same,TGI,COLO 205 colon,> 100 µM
same,TGI,UACC-62 melanoma,> 100 µM
same,TGI,UO-31 renal,> 100 µM
same,TGI,TK-10 renal,> 100 µM
same,TGI,SK-MEL-2 melanoma,> 100 µM
same,TGI,SW-620 colon,> 100 µM
same,TGI,T-47D breast,> 100 µM
same,TGI,CCRF-CEM leukemia,> 100 µM
same,TGI,SK-OV-3 ovarian,> 100 µM
same,TGI,OVCAR-8 ovarian,> 100 µM
same,TGI,HCT-15 colon,> 100 µM
same,TGI,MDA-MB-231 breast,> 100 µM
same,TGI,HCT-116 colon,> 100 µM
same,TGI,A498 renal,> 100 µM
same,TGI,MOLT-4 leukemia,> 100 µM
same,TGI,SNB-75 CNS,> 100 µM
same,TGI,NCI-H226 lung,> 100 µM
same,TGI,SF-295 CNS,> 100 µM
same,TGI,HOP-62 NSCLC,48 µM
same,TGI,ACHN renal,> 100 µM
same,TGI,NCI-H23 lung,> 100 µM
